System: equivalent dermis model constituted by a matrix of collagen seeded with normal human fibroblasts
Test: Dermo-relaxant effect: spontaneous contraction of equivalent dermis (collagen matrix seeded with fibroblasts)
Assay type: cell-based
Conditions: adenosine 0.01%
From the text: The principle of this test is to study the relaxing effect of adenosine on an equivalent dermis model constituted by a matrix of collagen seeded with normal human fibroblasts.
These conditions were intended to imitate in vitro the dermal contractile phenomena which occur during facial expressions. Under these conditions, cells spontaneously express tensile forces which induce retraction of the collagen gel. […] Measuring that surface area allows the relaxation effects of substances that have been brought into contact with the equivalent dermis to be determined.
Two series of 3 attached equivalent dermises containing normal human fibroblasts were prepared: a control series with no treatment, and a series treated with adenosine (0.01%). The experiment was carried out three times.
The skin equivalents were prepared as described by Asselineau et al, Exp. Cell. Res., 1985, 159, 536-539; Models in Dermatology, 1987, vol 3, pp 1-7, in the following proportions:
The treated equivalent dermis differed from the control equivalent dermis in that 0.01% of adenosine had been added.
The collagen used was type I collagen (commercial solution), but it was also possible to use type III or IV collagen. It was extracted from rat tails or calf skin by acid hydrolysis and stored in an acidic medium at +4° C.; it polymerizes naturally by heating to 37° C. and by reducing the acidity. The collagen had been dialyzed against successive baths of water+acetic acid.
The following protocol was employed: the following were introduced into a sterile tube: 1.76×MEM medium in the presence of additives (glutamine 1%, non essential amino acids 1%, sodium pyruvate 1%, fungizone 1% and penicillin/streptomycin 1%), foetal calf serum, 0.1 N sodium hydroxide NaOH. Fibroblasts isolated from human skin explants were then added in a concentration of 1.4×10^5 cells per ml of culture medium.
A 1/1000 vol/vol mixture of collagen in acetic acid was then slowly added by pouring it down the tube wall so that the appearance of a whitish cloud was observed.
The ensemble was then carefully mixed and distributed into the wells of a 12-well culture plate (Costar, reference 3512) in an amount of 0.5 ml of mixture per cm^2. The culture plate was placed in an incubator at 37° C. with 5% CO2.
Once formed after polymerizing the collagen, the equivalent dermises were left adhering to the culture support for 3 days then detached from the support so that contraction could commence. […]
To this end, a digital image was acquired for each treated or untreated equivalent dermis using a camera (CCD Camera—Iris Sony DXC—107P) and the surface area was then calculated for each image using an image analysis system (Zeiss Axiovision 3.0). […]

SMILES: Nc1ncnc2c1ncn2[C@@H]1O[C@H](CO)[C@@H](O)[C@H]1O [Adenosine]
- relaxing effect on equivalent dermis (conclusion in words): causes less contraction in an equivalent dermis
- reduction of contraction percentage compared with the control (eight hours after detachment from support): 10.5%
- reduction of contraction percentage compared with the control (four hours after detachment from support): 6.4%
- reduction of contraction percentage compared with the control (twenty-four hours after detachment from support): 12.7%

Reference: patent US20040146474A1, “Method for softening lines and relaxing the skin with adenosine and adenosine analogues” (L'OREAL, priority 2002, published 2004)
